Experimental data reported in patent publication US9480679B2, “Methods for treating malaria, tuberculosis and MAC diseases” (priority 2009, dated 2016).
pIC50: −log10 of the molar value. Values after ≈ are worked out from the molar mass of the structure shown. Values joined by “and” are separate entries in the source; they are usually repeats but may differ in a detail not shown here. Identical values can stand only once. Like-named read-outs stand apart in the source and are kept apart here. Marks after values point to notes of the source that are not given here.

Key:
P. berghei blood stages = assay: Blood stage treatment of P. berghei-infected mice, 3 day PO or SC dosing; format: in vivo; conditions: blood stage infections
M. avium = M. avium in vitro activity summary (MIC90, MBC); format: cell-based
[1] = test system: replicating M. tuberculosis; assay: Microplate Alamar Blue Assay (MABA), replicating culture; format: cell-based; conditions: two experiments
[2] = test system: clinical XDR strains of M. tuberculosis; assay: microbe, parasite or virus in culture; format: cell-based; conditions: Mycobacterium tuberculosis
M. avium complex = assay: Broth dilution MIC versus M. avium complex isolates; format: cell-based, Mycobacterium avium; conditions: Mycobacterium avium, read-out: MIC
[3] = format: in vitro ADME; conditions: 24 h
Procedure: EXAMPLE. Intracellular activity of CEM-101. […] After 24 hours, the intracellular concentration of CEM-101 was more than 2-fold higher than any of azithromycin, clarithromycin, and telithromycin, in decreasing order of ability for intracellular accumulation. CEM-101 intracellular accumulation was dose dependent.

[4] = test system: non-replicating M. tuberculosis; assay: Low Oxygen Recovery Assay (LORA), non-replicating culture; format: cell-based; conditions: non-replicating culture (anaerobic); two experiments
[5] = test system: MTb growing inside macrophages; assay: MTb inside infected macrophages, ATP readout; format: cell-based, M. tuberculosis; conditions: 1 μg/mL
[6] = test system: P. falciparum lines Dd2 and 7G8 and azithromycin-resistant lines; assay: Fidock lab 96 hours assay on P. falciparum lines; format: cell-based
From the text: EXAMPLE. CEM101 is active when tested against Azi resistant strain (Fidock).

[7] = test system: luciferase expressing P. berghei liver stage parasites; assay: Liver stage activity by in vivo imaging; conditions: mice, PO dosing at 40 mg/kg/d×3 days
Procedure: Efficacy was measured by number of mice with delayed parasitemia and mice that were malaria free at day 31. Antimalarial liver stage activity was assessed in mice infected with luciferase expressing P. berghei parasites using an in vivo imaging system.

P. berghei = assay: Murine P. berghei model, oral 1x or 4x 100 mg/kg; format: in vivo; conditions: for Parasitized RBC in one drop of blood (made by microscope): individual animals
Procedure: EXAMPLE. CEM-101 activity in infected mice.
EXAMPLE. CEM-101 was tested in the murine P. berghei model as described by Vennerstrom et al. Nature 430(7002):900-904 (2004), the disclosure of which is incorporated herein by reference.

[8] = test system: replicating M. tuberculosis; assay: Aero RLU (Relative Light Units under aerobic conditions), replicating culture; format: cell-based; conditions: two experiments
M. avium LPR ATCC 49601 = assay: Murine model of M. avium infection, CFU in spleens and lungs; format: in vivo; conditions: mice; for reduction in growth of MAC LPR in the spleens and lungs compared to the late controls: P<0.05
[9] = test system: P. berghei ANKA sporozoites; assay: Causal prophylactic P. berghei sporozoite mouse model; format: in vivo
Procedure: EXAMPLE. CEM-101 activity as prophylactic. Mice inoculated IV with 0.1 ml, 100,000 P. berghei ANKA sporozoites from mosquitoes. Drug administered Day −1, 0 and 1, Once daily for 3 days.

[10] = Systemic toxicity in mice with SC or PO dosing; format: in vivo; conditions: SC or PO dosing as high as 160 mg/kg/d×3 days
Procedure: For blood stage infections, the minimum curative SC dose was 40 mg/kg/d×3 days, while 80 mg/kg/d×3 was the minimum active dose for PO route. In the P. berghei causal mouse model, CEM-101 was curative at 40 mg/kg/d×3 days with SC or PO dosing.

CC[C@H]1OC(=O)[C@@](C)(F)C(=O)[C@H](C)[C@@H](O[C@@H]2O[C@H](C)C[C@H](N(C)C)[C@H]2O)[C@](C)(OC)C[C@@H](C)C(=O)[C@H](C)[C@H]2N(CCCCn3cc(-c4cccc(N)c4)nn3)C(=O)O[C@]12C [CEM-101, solithromycin]
minimum active dose for PO route (P. berghei blood stages; PO): 80 mg/kg/d×3
minimum curative SC dose (P. berghei blood stages; SC): 40 mg/kg/d×3 days
MBC (M. avium; Mycobacterium avium, all strains tested, read-out: MBC): 2 µg/mL (≈ 2.37 µM)
MIC (M. avium; Mycobacterium avium, susceptible phenotype, N=24, read-out: MIC): 1 µg/mL (≈ 1.18 µM)
MBC (range) (M. avium; N=30): 2 (2) μg/mL
MIC90 (range) (M. avium; N=30): 1 (1) μg/mL
MBC (M. avium; resistant phenotype, MBCs calculated for 4 of the resistant strains): 2^a μg/mL
MIC (M. avium; resistant phenotype, N=6): 1 µg/mL (≈ 1.18 µM)
MBC (M. avium; susceptible phenotype, N=24): 2 µg/mL (≈ 2.37 µM)
MIC ([1]; Mycobacterium tuberculosis): 9.23 µM (≈ 7.8 µg/mL)
MIC [1]: 9.17 µM (≈ 7.75 µg/mL)
MIC ([2]; 168 h, strain OB005, 1 week): 3.12 µg/mL (≈ 3.7 µM)
MIC ([2]; 168 h, strain OB031, 1 week): 0.049 µg/mL (≈ 0.058 µM)
MIC ([2]; 168 h, strain OB076a, 1 week): 0.049 µg/mL (≈ 0.058 µM)
MIC ([2]; 168 h, strain OB076b, 1 week): 0.049 µg/mL (≈ 0.058 µM)
MIC ([2]; 168 h, strain OB082, 1 week): 0.049 µg/mL (≈ 0.058 µM)
MIC ([2]; 336 h, strain OB005, 2 weeks): 12.5 µg/mL (≈ 14.8 µM)
MIC ([2]; 336 h, strain OB019, 2 weeks): 1.56 µg/mL (≈ 1.85 µM)
MIC ([2]; 336 h, strain OB031, 2 weeks): 0.78 to 1.56 µg/mL (≈ 0.923 to 1.85 µM)
MIC ([2]; 336 h, strain OB062, 2 weeks): 0.39 to 0.78 µg/mL (≈ 0.462 to 0.923 µM)
MIC ([2]; 336 h, strain OB076a, 2 weeks): 0.098 µg/mL (≈ 0.116 µM)
MIC ([2]; 336 h, strain OB076b, 2 weeks): 0.049 µg/mL (≈ 0.058 µM)
MIC ([2]; 336 h, strain OB081, 2 weeks): 12.5 µg/mL (≈ 14.8 µM)
MIC ([2]; 336 h, strain OB082, 2 weeks): 0.098 µg/mL (≈ 0.116 µM)
MIC ([2]; strain OB031, after a week (as the cell number increased)): 0.78 to 1.56 µg/mL (≈ 0.923 to 1.85 µM)
MIC ([2]; strain OB031, initially): 0.049 µg/mL (≈ 0.058 µM)
MIC (M. avium complex; isolate MAC 101, clarithromycin susceptible): 0.25 µg/mL (≈ 0.296 µM)
MIC (M. avium complex; isolate MAC 103, clarithromycin resistant): 8 µg/mL (≈ 9.47 µM)
MIC (M. avium complex; isolate MAC 108, clarithromycin resistant): 8 µg/mL (≈ 9.47 µM)
MIC (M. avium complex; isolate MAC 110, clarithromycin resistant): 8 µg/mL (≈ 9.47 µM)
MIC (M. avium complex; isolate MAC 216, clarithromycin resistant): 8 µg/mL (≈ 9.47 µM)
MIC (M. avium complex; isolate MAC 224, clarithromycin resistant): 8 µg/mL (≈ 9.47 µM)
MIC (M. avium complex; isolate MAC 309, clarithromycin resistant): 8 µg/mL (≈ 9.47 µM)
MIC (M. avium complex; isolate MAC 320, clarithromycin resistant): 8 µg/mL (≈ 9.47 µM)
MIC (M. avium complex; isolate MAC 621, clarithromycin resistant): 16 µg/mL (≈ 18.9 µM)
MIC (M. avium complex; isolate MAC 623, clarithromycin resistant): 16 µg/mL (≈ 18.9 µM)
MIC (M. avium complex; isolate MAC 625, clarithromycin resistant): 8 µg/mL (≈ 9.47 µM)
MIC (M. avium complex; isolate MAC 643, clarithromycin resistant): 8 µg/mL (≈ 9.47 µM)
MIC (M. avium complex; isolate MAC 1408, clarithromycin susceptible): 0.25 µg/mL (≈ 0.296 µM)
MIC (M. avium complex; isolate MAC 3404.4, clarithromycin susceptible): 0.125 µg/mL (≈ 0.148 µM)
MIC (M. avium complex; isolate MAC 9141, clarithromycin susceptible): 1 µg/mL (≈ 1.18 µM)
MIC (M. avium complex; isolate MAC FAR, clarithromycin susceptible): 0.125 µg/mL (≈ 0.148 µM)
MIC (M. avium complex; isolate MAC GRL, clarithromycin susceptible): 8 µg/mL (≈ 9.47 µM)
MIC (M. avium complex; isolate MAC KAL, clarithromycin susceptible): 16 µg/mL (≈ 18.9 µM)
MIC (M. avium complex; isolate MAC KZL, clarithromycin susceptible): 8 µg/mL (≈ 9.47 µM)
MIC (M. avium complex; isolate MAC LPR (control strain)): 8 µg/mL (≈ 9.47 µM)
MIC (M. avium complex; isolate MAC Pry, clarithromycin resistant): 8 µg/mL (≈ 9.47 µM)
MIC (M. avium complex; isolate MAC SMT, clarithromycin susceptible): 0.125 µg/mL (≈ 0.148 µM)
MIC (M. avium complex; isolate MAC TEL, clarithromycin susceptible): 8 µg/mL (≈ 9.47 µM)
MIC (M. avium complex; isolate MAC TRY, clarithromycin susceptible): 8 µg/mL (≈ 9.47 µM)
intracellular concentration relative to azithromycin, clarithromycin and telithromycin [3]: more than 2 fold
LORA [4]: 10.43 µM and 7.55 µM
decrease in ATP of MTb released from infected treated cells [5]: 10 fold
pIC50 ([6]; Plasmodium falciparum, 96 h, line 7G8 (multidrug resistant), 96 hours, read-out: Mean IC50): 7.73
pIC50 ([6]; Plasmodium falciparum, 96 h, line AZR 7G8-R1, 96 hours, read-out: Mean IC50): 7.10
pIC50 ([6]; Plasmodium falciparum, 96 h, line AZR Dd2-R2, 96 hours, runs 1-3, read-out: IC50): 7.14
pIC50 ([6]; Plasmodium falciparum, 96 h, line AZR Dd2-R2, 96 hours, read-out: Mean IC50): 7.16
pIC50 ([6]; Plasmodium falciparum, 96 h, line Dd2 (multidrug resistant), 96 hours, read-out: Mean IC50): 7.41
pIC50 ([6]; line AZR Dd2-R2, 96 hours, runs 1-3, read-out: IC50): 7.19 and 7.16
antimalarial activity against liver stage parasites by in vivo imaging [7]: No demonstrable antimalarial activity
outcome in murine malarial infection model (P. berghei; mice): curative
Activity (%) (P. berghei; mice, 1 × 100 mg/kg oral, DMSO): 80.05%
Survival (P. berghei; mice, 1 × 100 mg/kg oral, DMSO): 15.7 days
Activity (%) (P. berghei; mice, 1 × 100 mg/kg oral, HPMC): 81.45%
Survival (P. berghei; mice, 1 × 100 mg/kg oral, HPMC): 12.7 days
Activity (%) (P. berghei; mice, 4 × 100 mg/kg oral, DMSO): 99.79%
Cure (%) (P. berghei; mice, 4 × 100 mg/kg oral, DMSO): 100%
Survival (P. berghei; mice, 4 × 100 mg/kg oral, DMSO, survivors sacrificed on Day 31): 30.0 days
Activity (%) (P. berghei; mice, 4 × 100 mg/kg oral, HPMC): 99.79%
Cure (%) (P. berghei; mice, 4 × 100 mg/kg oral, HPMC): 100%
Survival (P. berghei; mice, 4 × 100 mg/kg oral, HPMC, survivors sacrificed on Day 31): 30.0 days
blood from treated animals parasite free or not (P. berghei; mice, 4× 100 mg/kg p.o.): parasite free
Visual Observation (parasites in blood) (P. berghei; mice, 4× 100 mg/kg p.o., DMSO): neg
Parasitized RBC in one drop of blood (made by microscope) (P. berghei; mice, 4× 100 mg/kg p.o., DMSO): 0
Visual Observation (parasites in blood) (P. berghei; mice, 4× 100 mg/kg p.o., HPMC): neg
Parasitized RBC in one drop of blood (made by microscope) (P. berghei; mice, 4× 100 mg/kg p.o., HPMC): 0
outcome of treatment (P. berghei; mice, P. berghei strain ANKA, 4×100 mg/kg, cure = survival on Day 30 with no detectable parasites): cure
activity compared with Artesunate in the mouse model (P. berghei; murine P. berghei model (Vennerstrom et al.)): equivalent activity to Artesunate
Aero RLU [8]: 7.19 µM and 6.95 µM
reduction in growth of MAC LPR in the spleens and lungs compared to the late controls, significant or not (M. avium LPR ATCC 49601; 25 mg/kg orally 5 days/week for 4 weeks, P>0.05): not
reduction in growth of MAC LPR in the spleens and lungs compared to the late controls (M. avium LPR ATCC 49601; 50 mg/kg orally 5 days/week for 4 weeks): significant
reduction in growth of MAC LPR in the spleens and lungs compared to the late controls (M. avium LPR ATCC 49601; 100 mg/kg orally 5 days/week for 4 weeks): significant
reduction in growth of MAC LPR in the spleens and lungs compared to the late controls (M. avium LPR ATCC 49601; 200 mg/kg orally 5 days/week for 4 weeks): significant
reduction in CFU of MAC LPR in spleens and lungs compared to the CLA 200 mg/kg group (M. avium LPR ATCC 49601; 200 mg/kg, difference not statistically significant (P>0.05)): greater
mice remaining parasite free ([9]; 20 mg/kg/d×3 days): 3/5
outcome in the P. berghei causal mouse model ([9]; 40 mg/kg/d×3 days with SC or PO dosing): curative
prophylactic activity ([9]; causal mouse malaria models, PO dosing at 40 mg/kg/d×3 days): 100%
blood stage infection after prophylactic dosing ([9]; mice dosed as low as 40 mg/kg/d×3 days): no blood stage infection was detected
Activity ([9]; mice, PO, dose 80, once daily Day -1, 0 and 1, (3 mice)): Complete curative
Activity ([9]; mice, PO, dose 120, once daily Day -1, 0 and 1, (3 mice)): Complete curative
Activity ([9]; mice, PO, dose 160, once daily Day -1, 0 and 1): Complete curative
Activity ([9]; mice, SC, dose 40, once daily Day -1, 0 and 1): Complete curative
Activity ([9]; mice, SC, dose 80, once daily Day -1, 0 and 1): Complete curative
Activity ([9]; mice, SC, dose 120, once daily Day -1, 0 and 1): Complete curative
Activity ([9]; mice, SC, dose 160, once daily Day -1, 0 and 1): Complete curative
minimum active dose ([9]; mice, causal prophylactic model): 20 mg/kg/d×3 days
systemic toxicity [10]: No systemic toxicity
